PMC12670405, “Second-Generation AURKA-Targeting PROTACs: Structural Optimization toward in Vivo Degradation in Neuroblastoma” (Journal of Medicinal Chemistry, 2025)

Tests used:
SK-N-AS = test: IncuCyte live-cell imaging, antiproliferative effect; format: cell-based; settings: Homo sapiens, 72 h, read-out: Cell GI50 72h
Summary of the method: (§1)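 Cells seeded in 384-well plates (neuroblastoma 1200–5000, HEK293T 600 cells/well), adhered overnight, then compound-treated in duplicate or triplicate; confluency tracked by IncuCyte live-cell imaging. Normalized confluence averaged from 3 experiments; absolute GI50 interpolated from four-parameter variable-slope curves.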

IMR-32 = test: as above; format: cell-based; settings: Homo sapiens, IMR-32, 72 h, read-out: Cell GI50 72h, IMR-32
Summary of the method: as §1

SJNB-8 = test: as above; format: cell-based; settings: Homo sapiens, 72 h, read-out: Cell GI50 72h, SJNB-8
Summary of the method: as §1

RPE = test: as above; format: cell-based; settings: 72 h, read-out: Cell GI50 72h
HEK293T = test: as above; format: cell-based; settings: Homo sapiens, HEK-293T, 72 h, read-out: Cell GI50 72h
Summary of the method: as §1

SK-N-SH = test: as above; format: cell-based; settings: Homo sapiens, 72 h, read-out: Cell GI50 72h
Summary of the method: as §1

NGP = test: as above; format: cell-based; settings: Homo sapiens, 72 h, read-out: Cell GI50 72h, NGP (Figure 4B)
Summary of the method: as §1

NanoLuc-AURKA [1] = molecular target: T1, NanoLuc-AURKA (Homo sapiens, UniProt O14965); test: NanoBRET target engagement, live (intact) cells; format: cell-based; settings: intact HEK293T
T1 construct: Plasmids encoding full-length wild-type AURKA fused to Nano-Luc; host or cells: HEK293T
T1 sequence (O14965 1-403): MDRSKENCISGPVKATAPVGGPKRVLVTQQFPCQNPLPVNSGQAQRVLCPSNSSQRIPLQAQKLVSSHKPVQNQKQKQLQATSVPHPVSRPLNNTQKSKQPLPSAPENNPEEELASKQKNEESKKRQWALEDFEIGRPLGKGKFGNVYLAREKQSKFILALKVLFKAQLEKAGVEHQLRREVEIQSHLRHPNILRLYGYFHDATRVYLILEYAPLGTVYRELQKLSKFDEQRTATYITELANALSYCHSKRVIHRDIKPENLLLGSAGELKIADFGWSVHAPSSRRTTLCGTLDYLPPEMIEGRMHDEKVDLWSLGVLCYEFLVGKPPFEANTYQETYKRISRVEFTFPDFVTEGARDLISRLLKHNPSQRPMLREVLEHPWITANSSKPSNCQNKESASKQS
Protocol: (§2) The NanoBRET Target Engagement Assay (Promega) was performed according to the recommended instructions from the manufacturer. Plasmids encoding full-length wild-type AURKA fused to Nano-Luc via AURKA’s C-terminus (Promega, #NV1041) were transfected into HEK293T cells using FuGENE HD (Promega, #E2312). […] The plate was mixed at 900 rpm for 15 s, using an orbital shaker. For the permeabilized-mode, digitonin (Sigma-Aldrich, #D141) was additionally added at a final concentration of 50 μg/mL. Test compounds were subsequently administered in duplicate using the D300e digital dispenser (Tecan), followed by incubation for 2 h (37 °C, 5% CO2). To measure BRET, nanoglo substrate and extracellular nanoluc inhibitor (only in live-mode) (Promega #N2540) were added, and luminescence was measured using the GloMax Discover Microplate Reader (Promega) with a luminescence filter pair of 450 nm (BP filter, donor) and 600 nm (LP filter, acceptor). The NanoBRET ratio was calculated using the following formula: BRET ratio = 1000*[(acceptor signal/donor signal)with tracer – (acceptor signal/donor signal)no tracer]. Relative BRET ratios (%) were generated by normalizing to the negative DMSO control. The experiment was performed once with 2 replicate samples.
(§3) All dose–response curves were computed on GraphPad Prism using the Variable Slope (four parameters) equation. Absolute half-maximal degradation (DC50), growth inhibitory (GI50) and enzymatic inhibitory (IC50) concentrations, as well as inhibition constants (Ki) were derived from dose–response curves via interpolation. Statistical tests were performed on GraphPad Prism and detailed in the figure legends. Unless otherwise stated, “n” in the figure legends indicates the number of independent experiments conducted at different times.

SK-N-BE(2)-C = test: IncuCyte live-cell imaging, antiproliferative effect; format: cell-based, human; settings: Homo sapiens, SK-N-BE(2)-C, 72 h, read-out: Cell GI50 72h
From the text: Human neuroblastoma cell lines NGP, IMR-32, SJNB-8, SK-N-BE(2)-C, SJNB-1, SK-N-SH and SK-N-AS, as well as benign immortalized cell lines RPE and HEK293T were either bought commercially or obtained through research laboratories. […] Screening for mycoplasma contamination occurred routinely on the cells. Human neuroblastoma cell lines SH-SY5Y_shABCB1 & SH-SY5Y_shNTC were generated by transduction with pLKO.1-ABCB1_TRCN0000059683 shRNA (Sigma MISSION SHCLND) or pLKO.1-puro NT shRNA (Sigma MISSION SHC002) vectors respectively (Supplementary Table S6), packaged using Lenti-X293T (Clontech). Transduced cells were selected with 2 μg/mL puromycin. These cells were cultured in DMEM 4.5 g/L D-Glucose, L-Glutamine and 110 mg/L Sodium Pyruvate (Gibco, #11995065) supplemented with 10% fetal bovine serum, 1× Antibiotic-Antimycotic solution (Sigma-Aldrich, #A5955) and 1× MEM nonessential amino acids (Sigma-Aldrich, #M7145). Incubation of all cells occurred at 37 °C and 5% CO2.
Neuroblastoma cells were seeded in 384-well plates at different densities ranging from 1200 to 5000 cells/well and allowed to adhere overnight. RPE and HEK293T were seeded at 200 and 600 cells/well, respectively. Compound treatment was performed using the D300e Digital Dispenser (Tecan) in duplicate or triplicate and cell confluency was monitored over time using the IncuCyte Live-cell imaging system (Sartorius). […] Mean normalized confluences were calculated from 3 individual experiments.
as §3

NanoLuc-AURKA [2] = molecular target: T1, NanoLuc-AURKA; test: NanoBRET target engagement, permeabilized mode; format: binding; settings: permeabilized HEK293T
Protocol: as §2, §3

GI50 (SK-N-AS) [nM] | GI50 (SK-N-SH) [nM] | NanoLuc-AURKA engagement in intact cells (in words) (NanoLuc-AURKA [1]) | GI50 (SK-N-BE(2)-C) [nM] | potency relative to SK4454 and SK5527 in NanoBRET (NanoLuc-AURKA [2]) | Compound | GI50 (IMR-32) [nM] | GI50 (SJNB-8) [nM] | GI50 (RPE) [nM] | GI50 (HEK293T) [nM] | GI50 (NGP) [nM]
911 | 249 | stronger AURKA engagement than TAS-119 | 302 | at least 10 times | O=C(O)[C@]1(Cc2cccc(Nc3nccs3)n2)CC[C@@H](Oc2cccc(Cl)c2F)CC1 [MK-5108, reference compound] | 119 | 348 | 953 | 1310 | 263
134 | 30 |  | 57 | at least 10 times | Cc1cc(Nc2nc(CC3(C(=O)O)CCN(C(=O)c4cccc(Cl)c4Cl)CC3)ccc2F)n[nH]1 [TAS-119, reference compound] | 11 | 44 | 250 | 184 | 20
